Calls of active or inactive are those of the source. How the calls were made is not given here.
Tested on: CCRIS mutagenicity, Ames/micronucleus/aberration tests
Experiment: CCRIS mutagenicity studies
[1] = Test System: AMES SALMONELLA TYPHIMURIUM, Strain/Indicator: TA98, Metabolic Activation: NONE, Method: STANDARD PLATE
[2] = Test System: AMES SALMONELLA TYPHIMURIUM, Strain/Indicator: TA98, Metabolic Activation: RAT, LIVER, S-9, AROCLOR 1254, Method: STANDARD PLATE
[3] = Test System: AMES SALMONELLA TYPHIMURIUM, Strain/Indicator: TA100, Metabolic Activation: NONE, Method: STANDARD PLATE
[4] = Test System: AMES SALMONELLA TYPHIMURIUM, Strain/Indicator: TA100, Metabolic Activation: RAT, LIVER, S-9, AROCLOR 1254, Method: STANDARD PLATE
[5] = Test System: AMES SALMONELLA TYPHIMURIUM, Strain/Indicator: TA1535, Metabolic Activation: NONE, Method: STANDARD PLATE
[6] = Test System: AMES SALMONELLA TYPHIMURIUM, Strain/Indicator: TA1535, Metabolic Activation: RAT, LIVER, S-9, AROCLOR 1254, Method: STANDARD PLATE
[7] = Test System: AMES SALMONELLA TYPHIMURIUM, Strain/Indicator: TA1537, Metabolic Activation: NONE, Method: STANDARD PLATE
[8] = Test System: AMES SALMONELLA TYPHIMURIUM, Strain/Indicator: TA1537, Metabolic Activation: RAT, LIVER, S-9, AROCLOR 1254, Method: STANDARD PLATE
[9] = Test System: MOUSE LYMPHOMA, Strain/Indicator: L5178Y (TK+/TK-), Metabolic Activation: NONE, Method: SUSPENSION/PLATE
[10] = Test System: AMES SALMONELLA TYPHIMURIUM, Strain/Indicator: TA98, Metabolic Activation: NONE, Method: PREINCUBATION
[11] = Test System: AMES SALMONELLA TYPHIMURIUM, Strain/Indicator: TA100, Metabolic Activation: NONE, Method: PREINCUBATION

Nc1ccc2ccccc2c1N=Nc1ccccc1
mutagenic call (Test System: AMES SALMONELLA TYPHIMURIUM, Strain/Indicator: TA98, Metabolic Activation: HAMSTER, LIVER, S-9, AROCLOR 1254 (2.5-20%), Method: PREINCUBATION): inactive; negative | mutagenic call (Test System: AMES SALMONELLA TYPHIMURIUM, Strain/Indicator: TA98, Metabolic Activation: HAMSTER, LIVER, S-9, AROCLOR 1254, Method: STANDARD PLATE): inactive; negative | mutagenic call [1]: inactive; negative | mutagenic call [2]: inactive; negative | mutagenic call (Test System: AMES SALMONELLA TYPHIMURIUM, Strain/Indicator: TA100, Metabolic Activation: HAMSTER, LIVER, S-9, AROCLOR 1254 (2.5-20%), Method: PREINCUBATION): inactive; negative | mutagenic call (Test System: AMES SALMONELLA TYPHIMURIUM, Strain/Indicator: TA100, Metabolic Activation: HAMSTER, LIVER, S-9, AROCLOR 1254, Method: STANDARD PLATE): inactive; negative | mutagenic call [3]: inactive; negative | mutagenic call [4]: inactive; negative | mutagenic call (Test System: AMES SALMONELLA TYPHIMURIUM, Strain/Indicator: TA102, Metabolic Activation: HAMSTER, LIVER, S-9, AROCLOR 1254 (10%), Method: PREINCUBATION): inactive; negative | mutagenic call (Test System: AMES SALMONELLA TYPHIMURIUM, Strain/Indicator: TA102, Metabolic Activation: NONE, Method: PREINCUBATION): inactive; negative | mutagenic call (Test System: AMES SALMONELLA TYPHIMURIUM, Strain/Indicator: TA102, Metabolic Activation: RAT, LIVER, S-9, AROCLOR 1254 (10%), Method: PREINCUBATION): inactive; negative | mutagenic call (Test System: AMES SALMONELLA TYPHIMURIUM, Strain/Indicator: TA1535, Metabolic Activation: HAMSTER, LIVER, S-9, AROCLOR 1254, Method: STANDARD PLATE): inactive; negative | mutagenic call [5]: inactive; negative | mutagenic call [6]: inactive; negative | mutagenic call (Test System: AMES SALMONELLA TYPHIMURIUM, Strain/Indicator: TA1537, Metabolic Activation: HAMSTER, LIVER, S-9, AROCLOR 1254, Method: STANDARD PLATE): inactive; negative | mutagenic call [7]: inactive; negative | mutagenic call [8]: inactive; negative | mutagenic call (Test System: AMES SALMONELLA TYPHIMURIUM, Strain/Indicator: TA1538, Metabolic Activation: HAMSTER, LIVER, S-9, AROCLOR 1254, Method: STANDARD PLATE): inactive; negative | mutagenic call (Test System: AMES SALMONELLA TYPHIMURIUM, Strain/Indicator: TA1538, Metabolic Activation: NONE, Method: STANDARD PLATE): inactive; negative | mutagenic call (Test System: AMES SALMONELLA TYPHIMURIUM, Strain/Indicator: TA1538, Metabolic Activation: RAT, LIVER, S-9, AROCLOR 1254, Method: STANDARD PLATE): inactive; negative | mutagenic call [9]: active; positive. reevaluation of results: equivocal

CC(O)CN(CC(C)O)CC(C)O (stereo not given)
mutagenic call (Test System: AMES SALMONELLA TYPHIMURIUM, Strain/Indicator: TA98, Metabolic Activation: HAMSTER, LIVER, S-9, AROCLOR 1254 (10%), Method: PREINCUBATION): inactive; negative | mutagenic call [10]: inactive; negative | mutagenic call (Test System: AMES SALMONELLA TYPHIMURIUM, Strain/Indicator: TA98, Metabolic Activation: RAT, LIVER, S-9, AROCLOR 1254 (10%), Method: PREINCUBATION): inactive; negative | mutagenic call (Test System: AMES SALMONELLA TYPHIMURIUM, Strain/Indicator: TA100, Metabolic Activation: HAMSTER, LIVER, S-9, AROCLOR 1254 (10%), Method: PREINCUBATION): inactive; negative | mutagenic call [11]: inactive; negative | mutagenic call (Test System: AMES SALMONELLA TYPHIMURIUM, Strain/Indicator: TA100, Metabolic Activation: RAT, LIVER, S-9, AROCLOR 1254 (10%), Method: PREINCUBATION): inactive; negative | mutagenic call (Test System: AMES SALMONELLA TYPHIMURIUM, Strain/Indicator: TA1535, Metabolic Activation: HAMSTER, LIVER, S-9, AROCLOR 1254 (10%), Method: PREINCUBATION): inactive; negative | mutagenic call (Test System: AMES SALMONELLA TYPHIMURIUM, Strain/Indicator: TA1535, Metabolic Activation: NONE, Method: PREINCUBATION): inactive; negative | mutagenic call (Test System: AMES SALMONELLA TYPHIMURIUM, Strain/Indicator: TA1535, Metabolic Activation: RAT, LIVER, S-9, AROCLOR 1254 (10%), Method: PREINCUBATION): inactive; negative | mutagenic call (Test System: AMES SALMONELLA TYPHIMURIUM, Strain/Indicator: TA1537, Metabolic Activation: HAMSTER, LIVER, S-9, AROCLOR 1254 (10%), Method: PREINCUBATION): inactive; negative | mutagenic call (Test System: AMES SALMONELLA TYPHIMURIUM, Strain/Indicator: TA1537, Metabolic Activation: NONE, Method: PREINCUBATION): inactive; negative | mutagenic call (Test System: AMES SALMONELLA TYPHIMURIUM, Strain/Indicator: TA1537, Metabolic Activation: RAT, LIVER, S-9, AROCLOR 1254 (10%), Method: PREINCUBATION): inactive; negative

COC(=O)c1oc(N(OC(C)=O)C(C)=O)c(-c2ccccc2)c1-c1ccccc1
mutagenic call [10]: inactive; negative | mutagenic call (Test System: AMES SALMONELLA TYPHIMURIUM, Strain/Indicator: TA98, Metabolic Activation: RAT, LIVER, S-9, AROCLOR, Method: PREINCUBATION): inactive; negative | mutagenic call [11]: inactive; negative | mutagenic call (Test System: AMES SALMONELLA TYPHIMURIUM, Strain/Indicator: TA100, Metabolic Activation: RAT, LIVER, S-9, AROCLOR, Method: PREINCUBATION): inactive; negative

O[C@H]1C=Cc2cccnc2[C@@H]1O
mutagenic call [3]: inactive; negative | mutagenic call (Test System: AMES SALMONELLA TYPHIMURIUM, Strain/Indicator: TA100, Metabolic Activation: RAT, LIVER, S-9, AROCLOR 1254 (10 OR 20%), Method: STANDARD PLATE): inactive; negative

CCN(CC)c1cc(NC(C)=O)c(N=Nc2ccc([N+](=O)[O-])cc2)cc1OC
mutagenic call [1]: active; positive | mutagenic call [2]: active; positive | mutagenic call [3]: inactive; negative | mutagenic call [4]: active; positive | mutagenic call [5]: inactive; negative | mutagenic call [6]: active; positive | mutagenic call [7]: inactive; negative | mutagenic call [8]: active; positive | mutagenic call [9]: inactive; negative | mutagenic call (Test System: MOUSE LYMPHOMA, Strain/Indicator: L5178Y (TK+/TK-), Metabolic Activation: RAT, LIVER, S-9, AROCLOR 1254, Method: SUSPENSION/PLATE): inactive; negative | mutagenic call (Test System: UDS RAT HEPATOCYTES, Strain/Indicator: THY INCORP, Metabolic Activation: NONE, Method: AUTORADIOGRAPHY): inactive; negative

— PubChem BioAssay AID1259407 (Chemical Carcinogenesis Research Information System (CCRIS), 2018)
